# Laboratory results published in patent publication US20250263370A1 (Tay Therapeutics Limited, priority 2022, published 2025).
# Like-named read-outs stand apart in the source and are kept apart here.
# Assay: Beagle dog PK study 1 of Example 101 (propylene glycol-based formulation, IV and PO), with clinical observations
# Assay type: in vivo
# Conditions: for concentration at 0.083 h / concentration at 0.25 h / concentration at 0.5 h / concentration at 1 h / concentration at 2 h / concentration at 4 h / concentration at 8 h / concentration at 24 h / AUC(0-inf) / AUC(0-t) / C0 / half-life / MRT inf / Vd / Cmax / Tmax: beagle, dog, plasma; for concentration at 0.083 h / concentration at 0.25 h / concentration at 0.5 h / concentration at 1 h / concentration at 2 h / concentration at 4 h / concentration at 8 h / concentration at 24 h: dog PK study 1, IV; for MRT inf: read-out: MRTInf—obs; for Vd: read-out: Vss—obs; for animal's temperature: test animal 3 in group 1 (1 mg/kg IV)
# Method: The purpose of this study was to examine the pharmacokinetics of Example 101 in beagle dogs. […] An oral PK study was also undertaken in Lewis rats—see Experimental Method C.
# Body weight was recoded prior to dosing, and detailed clinical observations were made prior to dosing and throughout the study, as needed.
# Subsequently, 17.320 mL Vitamin E TPGS was added, and the solution was vortexed and sonicated. Then, 51.960 mL water was added, and solution was then heated. […] Subsequently, 39.894 mL Vitamin E TPGS was added, and the solution was vortexed and sonicated. Then, 119.682 mL water was added, and the solution was heated.
# Blood samples (˜0.3 mL) were collected according to a schedule (detailed below) by venipuncture of peripheral veins except for the dosing vein, and EDTA-K2 was used as anticoagulant. Within 30 minutes of collection, the samples were centrifuged at approximately 2000×g for 10 minutes at 4° C. to obtain blood plasma. The plasma samples were immediately divided into two aliquots (˜75 μL each), transferred to a cryogenic vial, and stored in a freezer at −75±15° C. prior to analysis. […]
# The experiments were conducted on a Shimadzu DGU-20A5R and AB API 5500+LC/MS/MS instrument with an Agilent Poroshell EC-C18 4 μm (50×2.1 mm) column. A gradient of 95% water (0.1% formic acid)/95% acetonitrile (0.1% formic acid) was used as the mobile phase. The sample injection volume was 1 μL, and the flow rate was 0.6 mL/min. The gathered data were used for pharmacokinetic calculations using T½, C0, AUClast, AUCinf, MRTinf, CI, Vss, and Number of Points for Regression as parameters.
# [1] = iv, 1 mg/kg, Test Animal 1, read-out: Plasma concentration
# [2] = iv, 1 mg/kg, Test Animal 2, read-out: Plasma concentration
# [3] = iv, 1 mg/kg, Test Animal 3, read-out: Plasma concentration
# [4] = iv, 1 mg/kg, mean, read-out: Average plasma concentration, Mean
# [5] = iv, 1 mg/kg, dog PK study 1, intravenous, Test Animal 1
# [6] = iv, 1 mg/kg, dog PK study 1, intravenous, Test Animal 2
# [7] = iv, 1 mg/kg, dog PK study 1, intravenous, Test Animal 3
# [8] = iv, 1 mg/kg, dog PK study 1, intravenous, mean
# [9] = po, 5 mg/kg, dog PK study 1, oral, Test Animal 1
# [10] = po, 5 mg/kg, dog PK study 1, oral, Test Animal 2
# [11] = po, 5 mg/kg, dog PK study 1, oral, Test Animal 3
# [12] = po, 5 mg/kg, dog PK study 1, oral, mean
# [13] = dog PK study 1, intravenous, Test Animal 1
# [14] = dog PK study 1, intravenous, Test Animal 2
# [15] = dog PK study 1, intravenous, Test Animal 3
# [16] = dog PK study 1, intravenous, mean
# [17] = dog PK study 1, oral, Test Animal 1
# [18] = dog PK study 1, oral, Test Animal 2
# [19] = dog PK study 1, oral, Test Animal 3
compound,measurement,setting,value
"CNC(=O)c1[nH]c(C(=O)NC2CCC2)cc1O[C@@H](C)c1ccccc1 (stereo in doubt) [Example 101, N^5-cyclobutyl-N^2-methyl-3-(1-phenylethoxy)-1H-pyrrole-2,5-dicarboxamide]",plasma concentration as a function of time (FIG. 1A),"beagle dogs, 1 mg/kg IV, group 1",Decreases in plasma concentration were consistent across all animals and timepoints
same,time post-administration at which plasma concentrations began to steadily decrease (FIG. 1B),"beagle dogs, 5 mg/kg PO, group 2",approximately 1 h
same,tolerability,"beagle dogs, PK studies 1 and 2, oral and intravenous",capable of being administered orally and intravenously and well tolerated
same,concentration at 0.083 h,[1],1340 ng/mL
same,concentration at 0.083 h,[2],1320 ng/mL
same,concentration at 0.083 h,[3],1370 ng/mL
same,concentration at 0.083 h,[4],1340 ng/mL
same,concentration at 0.25 h,[1],1120 ng/mL
same,concentration at 0.25 h,[2],954 ng/mL
same,concentration at 0.25 h,[3],1110 ng/mL
same,concentration at 0.25 h,[4],1060 ng/mL
same,concentration at 0.5 h,[1],1040 ng/mL
same,concentration at 0.5 h,[2],747 ng/mL
same,concentration at 0.5 h,[3],867 ng/mL
same,concentration at 0.5 h,[4],885 ng/mL
same,concentration at 1 h,[1],623 ng/mL
same,concentration at 1 h,[2],580 ng/mL
same,concentration at 1 h,[3],520 ng/mL
same,concentration at 1 h,[4],574 ng/mL
same,concentration at 2 h,[1],314 ng/mL
same,concentration at 2 h,[2],265 ng/mL
same,concentration at 2 h,[3],313 ng/mL
same,concentration at 2 h,[4],297 ng/mL
same,concentration at 4 h,[1],81.6 ng/mL
same,concentration at 4 h,[2],56.5 ng/mL
same,concentration at 4 h,[3],68 ng/mL
same,concentration at 4 h,[4],68.7 ng/mL
same,concentration at 8 h,[1],15.7 ng/mL
same,concentration at 8 h,[2],3.65 ng/mL
same,concentration at 8 h,[3],4.61 ng/mL
same,concentration at 8 h,[4],8 ng/mL
same,concentration at 24 h,[1],0 ng/mL
same,concentration at 24 h,[2],0 ng/mL
same,concentration at 24 h,[3],0 ng/mL
same,concentration at 24 h,[4],0 ng/mL
same,AUC(0-inf),[5],2100 ng·h/mL
same,AUC(0-t),[5],2070 ng·h/mL
same,C0,[5],1460 ng/mL
same,half-life,[5],85.2 min
same,MRT inf,[5],1.54 h
same,Vd,[5],0.734 L/kg
same,AUC(0-inf),[6],1720 ng·h/mL
same,AUC(0-t),[6],1720 ng·h/mL
same,C0,[6],1550 ng/mL
same,half-life,[6],58.6 min
same,MRT inf,[6],1.29 h
same,Vd,[6],0.747 L/kg
same,AUC(0-inf),[7],1870 ng·h/mL
same,AUC(0-t),[7],1860 ng·h/mL
same,C0,[7],1520 ng/mL
same,half-life,[7],59.5 min
same,MRT inf,[7],1.35 h
same,Vd,[7],0.719 L/kg
same,AUC(0-inf),[8],1900 ng·h/mL
same,AUC(0-t),[8],1880 ng·h/mL
same,C0,[8],1510 ng/mL
same,half-life,[8],67.8 min
same,MRT inf,[8],1.39 h
same,Vd,[8],0.733 L/kg
same,AUC(0-t),[9],4520 ng·h/mL
same,Cmax,[9],2220 ng/mL
same,Tmax,[9],60 min
same,AUC(0-inf),[10],2960 ng·h/mL
same,AUC(0-t),[10],2930 ng·h/mL
same,Cmax,[10],1550 ng/mL
same,Tmax,[10],30 min
same,half-life,[10],69 min
same,MRT inf,[10],1.62 h
same,AUC(0-inf),[11],5010 ng·h/mL
same,AUC(0-t),[11],5000 ng·h/mL
same,Cmax,[11],2240 ng/mL
same,Tmax,[11],60 min
same,half-life,[11],50.7 min
same,MRT inf,[11],1.83 h
same,AUC(0-inf),[12],3980 ng·h/mL
same,AUC(0-t),[12],4150 ng·h/mL
same,Cmax,[12],2000 ng/mL
same,Tmax,[12],49.8 min
same,half-life,[12],60 min
same,MRT inf,[12],1.73 h
same,AUClast/D,[13],2066 (ng · h/mL)/(mg/kg)
same,AUC—% Extrap—obs,[13],1.54%
same,Cl_obs,[13],7.94 mL/min/kg
same,AUClast/D,[14],1718 (ng · h/mL)/(mg/kg)
same,AUC—% Extrap—obs,[14],0.298%
same,Cl_obs,[14],9.67 mL/min/kg
same,AUClast/D,[15],1864 (ng · h/mL)/(mg/kg)
same,AUC—% Extrap—obs,[15],0.353%
same,Cl_obs,[15],8.91 mL/min/kg
same,AUClast/D,[16],1883 (ng · h/mL)/(mg/kg)
same,AUC—% Extrap—obs,[16],0.73%
same,Cl_obs,[16],8.84 mL/min/kg
same,AUClast/D,[17],903 (ng · h/mL)/(mg/kg)
same,F,[17],48.0%
same,AUClast/D,[18],586 (ng · h/mL)/(mg/kg)
same,AUC—% Extrap—obs,[18],0.831%
same,F,[18],31.1%
same,AUClast/D,[19],1000 (ng · h/mL)/(mg/kg)
same,AUC—% Extrap—obs,[19],0.232%
same,F,[19],52.8%
same,AUClast/D,"dog PK study 1, oral, mean",830 (ng · h/mL)/(mg/kg)
same,AUC—% Extrap—obs,"dog PK study 1, oral, mean",0.531%
same,F,"dog PK study 1, oral, mean",44.0%
same,animal's temperature,4 h timepoint,36.4 °C
same,animal's temperature,6 h timepoint,38.1 °C
